Experiments:
[1] = system: IL-33; assay: Production of protein IL-33 in HDFa cells stimulated with IFNγ, ELISA (Example 8); format: cell-based, human; details: HDFa cells exposed to IFNγ (300 U/mL), 0.005, 0.01 and 0.05 mg/mL, 24 hours, cell lysates
Method: Adult human dermal fibroblasts (HDFa) were seeded on 24-well plate at concentration of 1×10^5 cells/mL in their corresponding growth media and incubated for 24 hours in standard culture conditions; at that time, three different concentrations (0.005, 0.01 and 0.05 mg/mL) of the Ac-SEQ ID NO: 1-NH2 were added in presence of IL-33-induction stimulus (IFNγ, 300 U/mL). Cells without stimuli were also included as basal group. Positive control group was cells treated with 300 U/mL of IFNγ, but without being treated with a peptide of the present invention. 24 hours later, conditioned media was collected, and cells processed for protein extraction.
IL-33 levels in the cell lysates were analysed with a commercial ELISA kit (DuoSet ELISA. R&D). Absorbances were measured with an automated spectrophotometer plate-reader.

[2] = Protein glycation (AGE formation), fluorimetric (Example 14); format: biochemical; details: 0.01, 0.05, 0.1 and 0.5 mg/mL; 72 hours at 37° C.; vs negative control
Method: Briefly, 0.01, 0.05, 0.1 and 0.5 mg/mL of peptide Ac-SEQ ID NO: 1-NH2 were mixed together with a glycation agent and its corresponding substrate. Samples were incubated for 72 hours at 37° C. A fluorimetric method was used to evaluate the % of protein glycation compared to the negative control (sample only with sugar substrate).

[3] = system: emilin-1; assay: Emilin-1 protein expression, immunofluorescence in HDLMVEC (Example 18); format: cell-based, Human
Method: HDLMVEC were cultured on coverslips in Microvascular Endothelial Cell Growth (MECG) Medium at a density of 16.000 cell/cm^2 and 37° C. in a humidified atmosphere with 5% CO2. When cell confluence was around 70-80%, cells were treated with 0.05 mg/mL Ac-SEQ ID NO:1-NH2 in MECG medium for 24 hours. Then, cells were washed twice with PBS, fixed with 4% formaldehyde and permeabilized with Triton 0.2%. Next, samples were blocked for 1 hour with PBS/BSA 5%, in order to avoid nonspecific antibody binding. Emilin-1 was stained with 1:50 Emilin-1 antibody in PBS/BSA 1%, during 1.5 hours at room temperature. After proper washing with PBS, actin was stained with 50 μg/mL Phalloidin during 1 hour at room temperature. Then, cells were washed with PBS and incubated with 5 μg/mL of the secondary antibody Goat anti-Rabbit IgG for 1 hour at room temperature. Finally, coverslips were mounted using Vectashield with DAPI, that stains nuclei, and samples were kept protected from light at 4° C. until microscopic images were acquired. […]
Images were analyzed using Image J software. Shortly, threshold was adjusted to select emilin-1 staining and mean fluorescent was measured. The number of cells was counted using the DAPI staining. […]
Statistical data analysis was performed using Student t-test by comparison of fluorescence from treated cells vs non-treated cells, *, p<0.05; **, p<0.01 and ***, p<0.001.

[4] = system: HDFa cells; assay: Genes related with response to sleep deprivation, RT-qPCR in HDFa (Example 16); format: cell-based, Human; details: 0.01 mg/ml, 24 hours
Method: A stock solution of the peptide was prepared in water at 1 mg/mL. Working solution was freshly prepared at the specified concentration from stock solution in the corresponding supplemented medium.
RNA (ribonucleic acid) extraction and RT-qPCR (reverse transcription quantitative polymerase chain reaction) were performed. […]
Cells were finally lysed, and replicates were pooled together for RNA extraction using Qiagen RNeasy Mini kit following manufacturer's instructions. […] (Annealing and extension) (Arya, M., Shergill, I. S., Williamson, M., Gommersall, L., Arya, N., Patel, H. R. (2005) Basic principles of real-time quantitative PCR. Expert Rev. Mol. Diagn.; 5(2):209-19; and Jozefczuk, J. and Adjaye, J. (2011) Quantitative real-time PCR-based analysis of gene expression. Methods Enzymol. 500; 99-109).
The obtained data was analysed using the ΔΔCt method, which provides the target gene expression values as fold changes in the treated sample compared with an untreated basal sample. […]

Substance: Ac-Arg-Arg-Gln-Met-Arg-Glu-NH2 (Ac-RRQMRE-NH2) [Ac-SEQ ID NO: 1-NH2]
- IL-33 protein levels [1]: reduces the IL-33 protein levels produced by HDFa cells exposed to IFNγ (300 U/mL) in a dose-dependent manner
- protein glycation [2]: able to protect from protein glycation
- % Mean of emilin-1 compared to untreated cells ([3]; 0.05 mg/mL, 24 hours, basal = 100.00): 170.88%
- increase of the expression of emilin-1 when compared with untreated cells ([3]; 24 h of treatment): more than 70%
- IL1RL1 Fold change between treated cells and basal control [4]: −1.26 Fold change

— patent US20220389058A1, “PEPTIDES AND COMPOSITIONS FOR USE IN COSMETICS AND MEDICINE” (LIPOTRUE, S.L., priority 2019, published 2022)
